Residue numbers refer to the chain shown, from its start. Where two headings read alike, the source gives them in different places. Each block holds one molecule with its values, some of them ahead of it.
Columns and labels:
Assay type in all cases: biochemical
[1] = biological target: T1, human CNGA3 wild-type homomeric channels (Homo sapiens, UniProt Q16281); assay: Inside-out patch clamp, homomeric CNGA3 wild type expressed in X. laevis oocytes
T1 sequence (Q16281 1-694): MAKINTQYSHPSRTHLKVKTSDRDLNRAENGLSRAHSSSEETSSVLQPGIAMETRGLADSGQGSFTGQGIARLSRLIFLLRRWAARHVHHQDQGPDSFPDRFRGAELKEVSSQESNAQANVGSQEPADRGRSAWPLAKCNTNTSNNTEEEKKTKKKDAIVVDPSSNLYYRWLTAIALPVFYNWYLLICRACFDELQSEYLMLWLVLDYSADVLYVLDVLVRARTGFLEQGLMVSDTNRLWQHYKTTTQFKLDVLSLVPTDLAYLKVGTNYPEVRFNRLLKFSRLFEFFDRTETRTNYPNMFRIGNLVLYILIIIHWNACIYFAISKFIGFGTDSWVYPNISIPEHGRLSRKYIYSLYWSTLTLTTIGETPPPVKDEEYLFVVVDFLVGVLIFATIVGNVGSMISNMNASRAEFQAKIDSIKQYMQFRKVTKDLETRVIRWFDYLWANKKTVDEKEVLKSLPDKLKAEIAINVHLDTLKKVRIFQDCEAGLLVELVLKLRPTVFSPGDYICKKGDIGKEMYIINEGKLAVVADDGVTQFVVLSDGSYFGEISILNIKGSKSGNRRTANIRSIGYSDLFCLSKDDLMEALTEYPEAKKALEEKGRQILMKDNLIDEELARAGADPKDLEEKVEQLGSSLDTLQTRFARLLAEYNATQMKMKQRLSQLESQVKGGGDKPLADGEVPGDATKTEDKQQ

[2] = biological target: T2, CNGA3 675X homomeric channels (Homo sapiens, UniProt Q16281); assay: Inside-out patch clamp, CNGA3 675X
T2 sequence (Q16281 1-674 limits assumed): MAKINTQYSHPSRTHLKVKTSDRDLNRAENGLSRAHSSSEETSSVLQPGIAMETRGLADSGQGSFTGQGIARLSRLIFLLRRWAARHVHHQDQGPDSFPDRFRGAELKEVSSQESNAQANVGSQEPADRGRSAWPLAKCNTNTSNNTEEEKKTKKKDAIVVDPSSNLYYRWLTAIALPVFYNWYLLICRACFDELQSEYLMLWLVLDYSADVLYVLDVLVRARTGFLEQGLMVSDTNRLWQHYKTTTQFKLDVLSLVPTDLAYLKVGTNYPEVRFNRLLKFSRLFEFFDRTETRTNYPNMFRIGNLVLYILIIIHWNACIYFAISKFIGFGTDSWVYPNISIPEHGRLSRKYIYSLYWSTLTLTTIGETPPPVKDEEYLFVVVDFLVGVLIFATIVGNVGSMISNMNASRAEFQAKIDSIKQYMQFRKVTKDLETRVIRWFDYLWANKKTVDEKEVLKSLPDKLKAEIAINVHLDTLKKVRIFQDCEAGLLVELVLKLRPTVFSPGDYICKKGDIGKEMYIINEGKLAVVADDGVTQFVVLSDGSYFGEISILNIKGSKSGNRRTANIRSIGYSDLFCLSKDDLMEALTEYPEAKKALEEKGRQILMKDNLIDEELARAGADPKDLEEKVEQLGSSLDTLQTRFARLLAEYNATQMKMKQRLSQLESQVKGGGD

CNGA3 D609M channels = CNGA3 D609M channels (Homo sapiens, UniProt Q16281, D609M); assay: Inside-out patch clamp, CNGA3 D609M
[3] = biological target: T3, CNGA3 P99L, A105P (PA-LP) channels (Homo sapiens, UniProt Q16281, A105P/P99L); assay: Inside-out patch clamp, CNGA3 P99L, A105P; settings: for EC50: read-out: K1/2 cGMP
T3 sequence (Q16281 1-694 P99L/A105P): T1 sequence (Q16281 1-694) with P99L, A105P

[4] = read-out: K1/2 cGMP, +80 mV, no PIPn
[5] = representative patch, before PIP3
[6] = representative patch, 1 µM PIP3

CNGA3 D609M channels, sequence (Q16281 whole entry D609M): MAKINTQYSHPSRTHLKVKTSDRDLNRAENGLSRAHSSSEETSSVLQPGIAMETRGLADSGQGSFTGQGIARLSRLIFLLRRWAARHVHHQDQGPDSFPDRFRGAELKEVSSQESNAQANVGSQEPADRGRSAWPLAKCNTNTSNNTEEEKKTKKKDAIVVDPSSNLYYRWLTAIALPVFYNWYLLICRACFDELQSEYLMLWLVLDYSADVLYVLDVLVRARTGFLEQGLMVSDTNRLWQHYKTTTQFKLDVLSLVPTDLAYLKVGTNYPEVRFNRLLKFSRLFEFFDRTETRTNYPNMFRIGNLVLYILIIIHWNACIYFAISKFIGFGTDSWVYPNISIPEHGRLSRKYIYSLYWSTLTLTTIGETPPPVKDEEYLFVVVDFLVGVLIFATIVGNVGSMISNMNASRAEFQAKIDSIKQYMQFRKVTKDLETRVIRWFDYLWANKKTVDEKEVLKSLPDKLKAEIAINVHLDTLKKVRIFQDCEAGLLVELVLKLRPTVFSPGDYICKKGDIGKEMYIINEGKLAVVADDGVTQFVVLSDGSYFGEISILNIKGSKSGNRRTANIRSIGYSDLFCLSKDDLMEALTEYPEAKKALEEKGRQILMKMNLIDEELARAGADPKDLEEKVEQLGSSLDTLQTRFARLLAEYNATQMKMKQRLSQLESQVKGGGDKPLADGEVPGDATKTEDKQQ

- Hill coefficient ([1]; cGMP activation): 1.91 ± 0.04 (18)
- Po max cGMP ([1]; estimated from state-dependent block by tetracaine): ~0.99
- EC50 [1, 4]: 9.29 ± 0.43 µM
- Hill coefficient ([2]; cGMP activation): 1.88 ± 0.05 (4)
- EC50 [2, 4]: 9.22 ± 0.55 µM
- Po max cGMP (CNGA3 D609M channels; estimated using tetracaine block): 0.30 ± 0.02
- EC50 ([3]; +80 mV, no PIPn): 5.3 ± 0.18 µM
- EC50 [3, 5]: 5.7 µM
- Hill coefficient h [3, 5]: 1.7
- Po max cGMP ([3]; saturating cGMP): 0.95 ± 0.01 (4)
Molecule: Nc1nc2c(ncn2[C@@H]2O[C@@H]3COP(=O)(O)O[C@H]3[C@H]2O)c(=O)[nH]1 [cGMP, cyclic guanosine monophosphate]

- fold increase Imax cAMP/cGMP ([1]; 1 µM PIP3 after prior application of cyto D): 2.54 ± 0.27 fold
- fold increase in Imax cAMP/cGMP ([1]; 10 µM phosphoinositide applied to inside-out patch): 2.63 ± 0.13 fold
- effect on maximal cGMP current ([1]; 1 mM cGMP): not significantly altered
- K1/2 cAMP after phosphoinositide ([1]; apparent cAMP affinity after PIP3 or PIP2 application): 1.16 ± 0.06 mM
- Po max cAMP after PIP3 ([1]; fluctuation analysis): 0.37 ± 0.07
- Po max cGMP after PIP3 ([1]; fluctuation analysis): 0.93 ± 0.01
- effect on relative cGMP efficacy (CNGA3 D609M channels; 1 µM PIP3): elevated relative cGMP efficacy
- Hill coefficient h after phosphoinositide ([3]; after PIP3 or PIP2 application): 1.8
- K1/2 cGMP after phosphoinositide ([3]; after PIP3 or PIP2 application): 9.4 ± 0.9 µM
- Hill coefficient h after PIP3 [3, 6]: 1.7
- K1/2 cGMP after PIP3 [3, 6]: 11.4 µM
Molecule: phosphatidylinositol (3,4,5)-trisphosphate [PIP3]
- PIP3-induced change in cAMP efficacy ([2]; 1 µM PIP3): preserved the PIP3-induced change in cAMP efficacy
